Experimental data published in article PMC8631675, “Neuroprotective effects of some epigenetic modifying drugs’ on Chlamydia pneumoniae-induced neuroinflammation: A novel model” (PLoS ONE, 2021).
Like-named read-outs stand apart in the source and are kept apart here.

How the values were obtained:
HMC3 microglia cells = experiment: Cell proliferation (cytotoxicity) analysis with xCELLigence, HMC3; format: cell-based, human
Description: (§1) Cell proliferation analysis was performed with xCELLigence Real-Time Cell Analysis System to assess TSA, RG108, givinostat, and rifampin concentrations for use in both models. Differentiated SH-SY5Y and HMC3 microglia cells were seeded at a 5x10^3 density per well and incubated 24 h until CI values reached a log phase. The system stopped at the end of 24 h, 100, 10 and 1 μM TSA, givinostat, RG108 and rifampin were applied on current media and the cell viability was tracked. […] Simultaneously, slope plots were drawn using the CI values at 24 and 48 hours, and the statistical significance of the values discovered by assuming the average CI values of the control wells to be 100% was calculated.

[1] = test system: differentiated SH-SY5Y cells; experiment: Cell proliferation (cytotoxicity) analysis with xCELLigence, SH-SY5Y; format: cell-based, human
Description: as §1

[2] = test system: differentiated SH-SY5Y cells; experiment: Cell viability against Aβ-induced neurotoxicity, xCELLigence; format: cell-based, human
Description: Pathological deterioration in AD is mainly associated with overproduction of the Aβ peptide and the Aβ (1–42) variant is the toxic form that is more predominant in Alzheimer’s patients. In this study, a modified oligomeric Aβ (1–42) neurotoxicity analysis protocol was applied in order to elucidate the effects of treatment groups on SH-SY5Y cell viability in the presence of Aβ [56]. In order to model Aβ-induced neurotoxicity in vitro, an oligomeric form of the Aβ1–42 peptide was prepared by diluting with ice-cold Ham’s F12 Nutrient Mixture medium dissolved in PBS containing 0.02 M NaOH at a final concentration of 50 μM and kept in a 37°C incubator for 7 days to form peptide aggregates prior to the experiments. 5x10^3 SH-SY5Y cells were differentiated inside the xCELLigence instrument for 5 days and treated with 100 nM TSA, RG108, givinostat, rifampin; 100 ng/ml LPS+IFN-ɣ or 1 μg/ml CFS+IFN-ɣ for 24 h in order to evaluate neuroprotection. The co-culture was performed in the same way as the neuroinflammation model. Neurotoxicity was obtained instead of neuroinflammation by diluting to 5 μM with fresh medium and adding Aβ1–42 aggregates to the wells for 24 h in 100 μl of medium. Cell viability data was then monitored for 24 h and analyzed within the instrument.

[3] = test system: differentiated SH-SY5Y cells; experiment: Annexin V-PI staining of Aβ-induced cell death, flow cytometry; format: cell-based, human; conditions: for Necrotic effect (Q5-UL): control 1.6%; for Apoptotic effect (early apoptosis + late apoptosis): control 1.9%; for Percentage of living cells (Live): control 96.5%
Description: To determine neuronal apoptosis associated with Aβ exposure, 25x10^3 differentiated SH-SY5Y cells were seeded in 24-well plates and Aβ was applied. After 24 h, cells were trypsinized and staining was performed according to the CF 488A Annexin V and PI Apoptosis Kit (Biotium, USA, Cat. No: 30061) protocol. After washing the cells with 1xPBS, the working solution was prepared by diluting the PI with Annexin V binding buffer included in the kit. 5 μl Annexin V and 2 μl PI working solution were added to the centrifuge tubes and binded with 100 μl Annexin V binding buffer. After the samples were incubated for 30 minutes on ice and in the dark, 400 μl of Annexin V binding buffer was added to each tube and the samples were measured and analyzed in a BD Accuri™ C6 flow cytometry device.

SH-SY5Y cells = experiment: Total ROS/Superoxide detection; format: cell-based, human; conditions: for Increase of ROS levels compared to the control group: inducers without drug pretreatment (Aβ, pyocyanin, or both)
Description: The Total ROS/Superoxide Detection Kit (ENZ-51010, Enzo) was used according to the kit process for evaluating the protective effects of the treatment groups on SH-SY5Y cells seeded at a 2x10^4 density per well in 96-well plates and Aβ was applied. ROS inhibitor N-acetyl cysteine (NAC) was applied at 5 mM concentration to negative control groups 30 minutes before the experiment and after incubation, 100 μL of “ROS/Superoxide Detection Solution” was added to the wells in the kit. The same procedure was done without the application of ROS inhibitor. Fluorometric analysis of stained cells was analyzed with Cytation 3 Cell Imaging Multi-Mode Reader (BioTek) using 490/525 nm and 550/620 nm filter sets.

APP/PS1 mice = test system: APP/PS1 mice; set-up: method as in PMID 33397436; conditions: cited from earlier work
[4] = 24 h pretreatment (drugs 100 nM; CFS 1 μg/ml + IFN-γ; LPS 100 ng/ml + IFN-γ), then 5 μM Aβ (1–42) aggregates 24 h
[5] = pretreatment (drugs 100 nM; LPS 100 ng/ml + IFN-γ; CFS 1 μg/ml + IFN-γ) + 5 μM Aβ 24 h
[6] = 30 minutes NAC 5 mM, treated (drugs 100 nM; LPS 100 ng/ml; CFS 1 μg/ml, with IFN-γ) prior to Aβ exposure
[7] = cells treated (drugs 100 nM; LPS 100 ng/ml; CFS 1 μg/ml, with IFN-γ) before exposure to Aβ, without NAC

Compound | Reduction of HMC3 cell viability compared to the control group (HMC3 microglia cells; 1 μM (printed M), 24 hours) [%] | Reduction of HMC3 cell viability compared to the control group (HMC3 microglia cells; 1 μM (printed M), 48 hours) [%] | Reduction of HMC3 cell viability compared to the control group (HMC3 microglia cells; 10 μM, 24 hours) [%] | Reduction of HMC3 cell viability compared to the control group (HMC3 microglia cells; 10 μM, 48 hours) [%] | Reduction of HMC3 cell viability compared to the control group (HMC3 microglia cells; 100 μM, 24 hours) [%] | Reduction of HMC3 cell viability compared to the control group (HMC3 microglia cells; 100 μM, 48 hours) [%] | Reduction of differentiated SH-SY5Y cell viability ([1]; 1 μM, 24 hours) [%] | Reduction of differentiated SH-SY5Y cell viability ([1]; 1 μM, 48 hours) [%] | Reduction of differentiated SH-SY5Y cell viability ([1]; 10 μM, 24 hours) [%] | Reduction of differentiated SH-SY5Y cell viability ([1]; 10 μM, 48 hours) [%] | Reduction of differentiated SH-SY5Y cell viability ([1]; 100 μM, 24 hours) [%] | Reduction of differentiated SH-SY5Y cell viability ([1]; 100 μM, 48 hours) [%] | CI values compared to the control group [2, 4] [%] | Necrotic effect (Q5-UL) [3, 5] [%] | Apoptotic effect (early apoptosis + late apoptosis) [3, 5] [%] | Percentage of living cells (Live) [3, 5] [%] | Increase of total amount of ROS compared to the control group, with NAC (SH-SY5Y cells; [6]) [%] | Decrease of total ROS amount according to the Aβ group (SH-SY5Y cells; [7]) [%] | Increase of ROS levels compared to the control group (SH-SY5Y cells; without NAC) [%] | further results
CCN(CC)Cc1ccc2cc(COC(=O)Nc3ccc(C(=O)NO)cc3)ccc2c1 [Givinostat, givinostat] | 35.01 | 62.78 | 58.19 | 92.67 | 93.58 | 99.29 | 88.72 | 90.56 | 96.85 | 96.9 | 98.06 | 98.77 | 136.2 | 7.8 | 7.8 | 84.3 | 22.87 | 30.49 |  | IC50 (HMC3 microglia cells; Homo sapiens, HMC3, 24 h, from CI values at 24th hour, 1, 10 and 100 μM tested, read-out: IC50 Values 24h HMC3): 11800 nM; IC50 (HMC3 microglia cells; Homo sapiens, HMC3, 48 h, from CI values at 48th hour, 1, 10 and 100 μM tested, read-out: IC50 Values 48h HMC3): 539 nM; IC50 ([1]; Homo sapiens, SH-SY5Y, 24 h, from CI values at 24th hour, 1, 10 and 100 μM tested, read-out: IC50 Values 24h SH-SY5Y): 2780 nM; IC50 ([1]; Homo sapiens, SH-SY5Y, 48 h, from CI values at 48th hour, 1, 10 and 100 μM tested, read-out: IC50 Values 48h SH-SY5Y): 1420 nM; Reduction of cell viability compared to the Aβ positive control group ([3]; 100 nM + 5 μM Aβ): 0.5%; Increase of total amount of ROS compared to the control group (SH-SY5Y cells; cells treated (drugs 100 nM; LPS 100 ng/ml; CFS 1 μg/ml, with IFN-γ) before exposure to Aβ, without NAC, not significant): 13.09%
CC(/C=C/C(=O)NO)=C\[C@@H](C)C(=O)c1ccc(N(C)C)cc1 [TSA, Trichostatin A] | 0.04 | 1.75 | 13.88 | 21.94 | 31.68 | 51.2 | 91.34 | 97.97 | 97.43 | 98.9 | 97.86 | 99.79 | 137 | 5.6 | 5.8 | 88.6 | 0.7 | 53.43 |  | IC50 (HMC3 microglia cells; from CI values at 48th hour, 1, 10 and 100 μM tested, read-out: IC50 Values 48h HMC3): 156 nM; IC50 ([1]; from CI values at 24th hour, 1, 10 and 100 μM tested, read-out: IC50 Values 24h SH-SY5Y): 596 nM; IC50 ([1]; from CI values at 48th hour, 1, 10 and 100 μM tested, read-out: IC50 Values 48h SH-SY5Y): 312 nM; Decrease of total amount of ROS compared to the control group (SH-SY5Y cells; cells treated with compounds (100 nM) before exposure to Aβ, without NAC): 9.85%; Effect on Aβ plaques and soluble Aβ oligomers in the brain (APP/PS1 mice): reduce Aβ plaques and soluble Aβ oligomers in the brain; Effect on learning and memory behaviors (APP/PS1 mice): improve learning and memory behaviors
Cn1c2cccc(=O)c-2nc2ccccc21 [pyocyanin] |  |  |  |  |  |  |  |  |  |  |  |  |  |  |  |  |  |  | 36.49 | Decrease of amount of ROS, with NAC (SH-SY5Y cells; 30 minutes NAC 5 mM, pyocyanin without Aβ): 0.85%
Aβ: oligomeric/aggregated Aβ1–42 peptide used at 5 μM to induce neurotoxicity |  |  |  |  |  |  |  |  |  |  |  |  |  |  |  |  |  |  | 43.58 | CI values compared to the control group ([2]; 5 μM Aβ (1–42) aggregates alone, 24 h): 48.5%; Necrotic effect (Q5-UL) ([3]; 5 μM Aβ alone 24 h): 6.7%; Apoptotic effect (early apoptosis + late apoptosis) ([3]; 5 μM Aβ alone 24 h): 8.5%; Percentage of living cells (Live) ([3]; 5 μM Aβ alone 24 h): 84.8%; Increase of total amount of ROS compared to the control group, with NAC (SH-SY5Y cells; 30 minutes ROS inhibitor NAC 5 mM, inducers without drug pretreatment (Aβ, or Aβ with pyocyanin)): 6.62%
